What was measured:
[1] = Solubility of sonidegib phosphate in various media; assay type: physicochemical
From the text: Solubility of Sonidegib Phosphate in Various Media

[2] = Surface area of sonidegib drug substance; assay type: physicochemical

| solubility ([1]; acetate buffer, pH 4.5, aqueous buffer) | solubility ([1]; phosphate buffer, pH 6.8, aqueous buffer) | solubility ([1]; phosphate buffer, pH 7.4, aqueous buffer) | solubility ([1]; simulated gastric fluid, 0.01N HCl, pH 2.0) | solubility ([1]; simulated gastric fluid, 0.1N HCl, pH 1.0) | solubility ([1]; water) | Compound | surface area [2] |
| --- | --- | --- | --- | --- | --- | --- | --- |
| < 0.2 µg/mL | < 0.2 µg/mL | < 0.2 µg/mL | 18 µg/mL | 4 µg/mL | 7 µg/mL | Cc1c(C(=O)Nc2ccc(N3C[C@@H](C)O[C@@H](C)C3)nc2)cccc1-c1ccc(OC(F)(F)F)cc1 [Sonidegib Phosphate] |  |
|  |  |  |  |  |  | Cc1c(C(=O)Nc2ccc(N3C[C@@H](C)O[C@@H](C)C3)nc2)cccc1-c1ccc(OC(F)(F)F)cc1 [Sonidegib, N-(6-((2R,6S)-2,6-dimethylmorpholino)pyridin-3-yl)-2-methyl-4′-(trifluoromethoxy)-[1,1′-biphenyl]-3-carboxamide] | Sonidegib has a very high surface area (270 m2/g) and a porous structure that leads to poor water solubility. |

Reference: patent US10426781B2, “Oral formulation and suspension of an oncology drug” (SUN PHARMA GLOBAL FZE, priority 2013, dated 2019)
